Assay results published in article PMC3171563 (2011).

What was measured:
[1] = target: T1, histone deacetylase 8 (HDAC8) (Homo sapiens, UniProt Q9BY41); experiment: Fluor-de-Lys fluorescence deacetylase assay; assay type: biochemical
T1 sequence (Q9BY41 1-377): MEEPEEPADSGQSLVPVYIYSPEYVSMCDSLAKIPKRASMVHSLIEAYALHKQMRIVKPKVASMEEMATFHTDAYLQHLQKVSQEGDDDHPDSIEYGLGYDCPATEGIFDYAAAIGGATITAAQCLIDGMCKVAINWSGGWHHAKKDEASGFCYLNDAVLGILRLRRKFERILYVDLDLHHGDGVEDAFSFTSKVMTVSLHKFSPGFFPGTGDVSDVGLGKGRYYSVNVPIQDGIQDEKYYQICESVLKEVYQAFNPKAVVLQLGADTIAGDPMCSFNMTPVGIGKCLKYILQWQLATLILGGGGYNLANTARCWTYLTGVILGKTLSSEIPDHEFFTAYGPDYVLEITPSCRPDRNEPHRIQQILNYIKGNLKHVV

[2] = target: acetylpolyamine amidohydrolase (APAH) (Mycoplana ramosa, UniProt Q48935); experiment: Fluor-de-Lys fluorescence deacetylase assay; assay type: biochemical
acetylpolyamine amidohydrolase (APAH), sequence (Q48935 whole entry): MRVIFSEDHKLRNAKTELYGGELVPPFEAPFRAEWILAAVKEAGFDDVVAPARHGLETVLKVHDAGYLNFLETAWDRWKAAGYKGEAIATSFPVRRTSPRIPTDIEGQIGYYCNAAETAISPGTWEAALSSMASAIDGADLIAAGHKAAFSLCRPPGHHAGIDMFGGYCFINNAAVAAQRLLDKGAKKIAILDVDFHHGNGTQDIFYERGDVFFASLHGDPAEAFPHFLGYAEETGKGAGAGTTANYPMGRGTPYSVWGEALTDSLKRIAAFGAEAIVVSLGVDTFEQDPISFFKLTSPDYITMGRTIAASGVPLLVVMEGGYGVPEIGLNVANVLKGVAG

`N[C@@H](CCCCC(=O)C(F)(F)F)C(=O)O` [compound 10, (S)-2-amino-8,8,8-trifluoro-7-oxo-octanoic acid] showed an IC50 [1] of 1.5 ± 0.2 µM and an IC50 [2] of 110 ± 30 µM.
